Assay results from publication PMC9511441, “Semisynthetic teicoplanin derivatives with dual antimicrobial activity against SARS-CoV-2 and multiresistant bacteria” (Scientific Reports, 2022).
In brackets after ≈: the same amount, converted by molar mass. Where two headings read alike, the source gives them in different places.

What was measured:
Type in all cases: cell-based
[1] = system: SARS-CoV-2 pseudovirus; assay: microbe, parasite or virus in culture; details: A549-AT cells (ACE2 and TMPRSS2), luciferase signal, mean ± SEM of 3 tests, read-out: EC50, inhibition of SARS-CoV-2 pseudovirus entry in A549-AT cells
[2] = system: SARS-CoV-2 pseudovirus; assay: microbe, parasite or virus in culture; details: Vero cells, luciferase signal, mean ± SEM of 3 tests, read-out: EC50, inhibition of SARS-CoV-2 pseudovirus entry in Vero cells
[3] = system: E. faecalis; assay: MIC, broth microdilution; details: for MIC: Enterococcus faecalis
From the text: (§1) We determined the minimal inhibitory concentrations (MIC) of the teicoplanin conjugates for a large panel of Gram-positive bacterial strains, using vancomycin, unmodified teicoplanin, dalbavancin and oritavancin as reference compounds. […] The bacterial strains (see Suppl. Table S5 for all details) were selected to achieve maximum diversity of multidrug-resistance and include strains with known mechanisms of resistance to glycopeptides in clinical use. The S. epidermidis and S. haemolyticus strains resistant to dalbavancin and oritavancin were obtained in vitro from clinical isolates sensitive to the glycopeptide antibiotics.

[4] = system: S.pyogenes; assay: MIC, broth microdilution; details: for MIC: Streptococcus pyogenes
From the text: as §1

[5] = system: S. aureus; assay: MIC, broth microdilution; details: for MIC: Staphylococcus aureus
From the text: as §1

[6] = system: S. haemolyticus; assay: MIC, broth microdilution; details: for MIC: Staphylococcus haemolyticus
From the text: as §1

[7] = system: S. epidermidis; assay: microbe, parasite or virus in culture; details: for MIC: Staphylococcus epidermidis
From the text: as §1

[8] = system: E. faecium; assay: microbe, parasite or virus in culture; details: for MIC: Enterococcus faecium
From the text: as §1

[9] = Severe acute respiratory syndrome-related coronavirus

CN(C)C(=O)COC(=O)Cc1ccc(OC(=O)c2ccc(NC(=N)N)cc2)cc1 [Camostat, camostat, reference compound]
EC50 [1, 9]: 490 ± 50 nM | EC50 [2, 9]: > 20000 nM

CN[C@H](CC(C)C)C(=O)N[C@H]1C(=O)N[C@@H](CC(N)=O)C(=O)N[C@H]2C(=O)N[C@H]3C(=O)N[C@H](C(=O)N[C@H](C(=O)O)c4cc(O)cc(O)c4-c4cc3ccc4O)[C@H](O)c3ccc(c(Cl)c3)Oc3cc2cc(c3O[C@@H]2O[C@H](CO)[C@@H](O)[C@H](O)[C@H]2O[C@H]2C[C@](C)(N)[C@H](O)[C@H](C)O2)Oc2ccc(cc2Cl)[C@H]1O [VAN, vancomycin, reference compound]
MIC ([3]; read-out: Average MIC value, E. faecalis VAN^R,TEI^R/VanA, 1 strain): > 64 µg/mL | MIC ([3]; read-out: Average MIC value, E. faecalis VAN^S, TEI^S, 2 strains): 0.25 µg/mL (≈ 0.173 µM) | MIC ([3]; read-out: MIC value, E.faecalis JH2-2): 0.25 µg/mL (≈ 0.173 µM) | MIC ([3]; read-out: MIC value, E.faecalis OG1RF): 0.25 µg/mL (≈ 0.173 µM) | MIC ([3]; read-out: MIC value, E.faecalis V583, VAN,TEI/VanA): > 64 µg/mL | MIC ([4]; read-out: MIC value, S.pyogenes H232): 0.0625 µg/mL (≈ 0.0431 µM) | MIC ([4]; read-out: MIC value, S.pyogenes H550): 0.0625 µg/mL (≈ 0.0431 µM) | MIC ([4]; read-out: MIC value, S.pyogenes H578): 0.0625 µg/mL (≈ 0.0431 µM) | MIC ([5]; ATCC 29213 / MSSA, read-out: MIC value, S. aureus ATCC29213, MSSA): 1 µg/mL (≈ 0.69 µM) | MIC ([5]; MRSA / USA300, read-out: MIC value, S. aureus USA300, CA-MRSA): 0.25 µg/mL (≈ 0.173 µM) | MIC ([5]; MRSA, read-out: Average MIC value, S. aureus CA-MRSA, 1 strain): 0.25 µg/mL (≈ 0.173 µM) | MIC ([5]; MRSA, read-out: Average MIC value, S. aureus MRSA, 7 strains): 1.25 µg/mL (≈ 0.863 µM) | MIC ([5]; MRSA, read-out: MIC value, S. aureus 73OL, MRSA): 1 µg/mL (≈ 0.69 µM) | MIC ([5]; MRSA, read-out: MIC value, S. aureus 214OL, MRSA): 1 µg/mL (≈ 0.69 µM) | MIC ([5]; MRSA, read-out: MIC value, S. aureus 1041OL, MRSA): 1 µg/mL (≈ 0.69 µM) | MIC ([5]; MRSA, read-out: MIC value, S. aureus A6918, MRSA): 1 µg/mL (≈ 0.69 µM) | MIC ([5]; MRSA, read-out: MIC value, S. aureus A6919, MRSA): 0.25 µg/mL (≈ 0.173 µM) | MIC ([5]; MRSA, read-out: MIC value, S. aureus Mu50, MRSA): 4 µg/mL (≈ 2.76 µM) | MIC ([5]; MRSA, read-out: MIC value, S. aureus N315, MRSA): 0.5 µg/mL (≈ 0.345 µM) | MIC ([5]; MSSA / NEWMAN, read-out: MIC value, S. aureus Newman, MSSA): 0.5 µg/mL (≈ 0.345 µM) | MIC ([5]; MSSA, read-out: Average MIC value, S. aureus MSSA, 4 strains): 0.625 µg/mL (≈ 0.431 µM) | MIC ([5]; MSSA, read-out: MIC value, S. aureus MSSA476, MSSA): 0.5 µg/mL (≈ 0.345 µM) | MIC ([5]; MSSA, read-out: MIC value, S. aureus SA564, MSSA): 0.5 µg/mL (≈ 0.345 µM) | MIC ([6]; S. haemolyticus mecA, 6 strains, read-out: Average MIC value): 28 µg/mL (≈ 19.3 µM) | MIC ([6]; S.haemolyticus DALB_R1, mecA, read-out: MIC value): 32 µg/mL (≈ 22.1 µM) | MIC ([6]; S.haemolyticus DALB_R2, mecA, read-out: MIC value): 64 µg/mL (≈ 44.2 µM) | MIC ([6]; S.haemolyticus DALB_R3, mecA, read-out: MIC value): 8 µg/mL (≈ 5.52 µM) | MIC ([6]; S.haemolyticus DALB_R4, mecA, read-out: MIC value): 32 µg/mL (≈ 22.1 µM) | MIC ([6]; S.haemolyticus DALB_R5, mecA, read-out: MIC value): 16 µg/mL (≈ 11 µM) | MIC ([6]; S.haemolyticus ORI_R1, mecA, read-out: MIC value): 16 µg/mL (≈ 11 µM) | MIC ([7]; read-out: Average MIC value, S. epidermidis mecA, 6 strains): 6.67 µg/mL (≈ 4.6 µM) | MIC ([7]; read-out: MIC value, S.epidermidis ORI_R1, mecA): 8 µg/mL (≈ 5.52 µM) | MIC ([7]; read-out: MIC value, S.epidermidis ORI_R2, mecA): 8 µg/mL (≈ 5.52 µM) | MIC ([7]; read-out: MIC value, S.epidermidis ORI_R3, mecA): 8 µg/mL (≈ 5.52 µM) | MIC ([7]; read-out: MIC value, S.epidermidis ORI_R4, mecA): 4 µg/mL (≈ 2.76 µM) | MIC ([7]; read-out: MIC value, S.epidermidis TEI_R1, mecA): 4 µg/mL (≈ 2.76 µM) | MIC ([7]; read-out: MIC value, S.epidermidis TEI_R2, mecA): 8 µg/mL (≈ 5.52 µM) | MIC ([8]; read-out: Average MIC value, E. faecium VAN^R,TEI^R/VanA, 8 strains): > 64 µg/mL | MIC ([8]; read-out: Average MIC value, E. faecium VAN^S, TEI^S, 1 strain): 0.25 µg/mL (≈ 0.173 µM) | MIC ([8]; read-out: MIC value, E.faecium E335, VAN,TEI,LNZ/VanA): > 64 µg/mL | MIC ([8]; read-out: MIC value, E.faecium E355, VAN,TEI,LNZ/VanA): > 64 µg/mL | MIC ([8]; read-out: MIC value, E.faecium E832, VAN,TEI,LNZ/VanA): > 64 µg/mL | MIC ([8]; read-out: MIC value, E.faecium E854, VAN,TEI,LNZ/VanA): > 64 µg/mL | MIC ([8]; read-out: MIC value, E.faecium E859, VAN,TEI,LNZ/VanA): > 64 µg/mL | MIC ([8]; read-out: MIC value, E.faecium E1114, VAN,TEI,LNZ/VanA): > 64 µg/mL | MIC ([8]; read-out: MIC value, E.faecium E1131, VAN,TEI,LNZ/VanA): > 64 µg/mL | MIC ([8]; read-out: MIC value, E.faecium E1132, VAN,TEI,LNZ/VanA): > 64 µg/mL | MIC ([8]; read-out: MIC value, E.faecium TX0016): 0.25 µg/mL (≈ 0.173 µM)

CN[C@H]1C(=O)N[C@@H]2Cc3ccc(cc3)Oc3cc4cc(c3O[C@@H]3O[C@H](C(=O)O)[C@@H](O)[C@H](O)[C@H]3NC(=O)CCCCCCCCC(C)C)Oc3ccc(cc3Cl)[C@@H](O)[C@@H]3NC(=O)[C@H](NC(=O)[C@@H]4NC(=O)[C@@H](NC2=O)c2cc(cc(O)c2Cl)Oc2cc1ccc2O)c1ccc(O)c(c1)-c1c(O[C@H]2O[C@H](CO)[C@@H](O)[C@H](O)[C@@H]2O)cc(O)cc1[C@@H](C(=O)NCCCN(C)C)NC3=O [DALB, dalbavancin, reference compound]
Average MIC value ([3]; E. faecalis VAN^R,TEI^R/VanA, 1 strain): 64 µg/mL | Average MIC value ([3]; E. faecalis VAN^S, TEI^S, 2 strains): 0.25 µg/mL | MIC value ([3]; E.faecalis JH2-2): 0,25 µg/ml | MIC value ([3]; E.faecalis OG1RF): 0,25 µg/ml | MIC value ([3]; E.faecalis V583, VAN,TEI/VanA): 64 µg/mL (≈ 35.2 µM) | MIC value ([4]; S.pyogenes H232): 0,0625 µg/ml | MIC value ([4]; S.pyogenes H550): 0,25 µg/ml | MIC value ([4]; S.pyogenes H578): 0,25 µg/ml | MIC value ([5]; S. aureus 73OL, MRSA): 0,125 µg/ml | MIC value ([5]; S. aureus 214OL, MRSA): 0,125 µg/ml | MIC value ([5]; S. aureus 1041OL, MRSA): 0,03125 µg/ml | MIC value ([5]; S. aureus A6918, MRSA): 0,125 µg/ml | MIC value ([5]; S. aureus A6919, MRSA): 0,0625 µg/ml | MIC value ([5]; S. aureus ATCC29213, MSSA): 0,125 µg/ml | Average MIC value ([5]; S. aureus CA-MRSA, 1 strain): 0.0625 µg/mL | Average MIC value ([5]; S. aureus MRSA, 7 strains): 0.1 µg/mL | MIC value ([5]; S. aureus MSSA476, MSSA): 0,125 µg/ml | Average MIC value ([5]; S. aureus MSSA, 4 strains): 0.125 µg/mL | MIC value ([5]; S. aureus Mu50, MRSA): 0,125 µg/ml | MIC value ([5]; S. aureus N315, MRSA): 0,125 µg/ml | MIC value ([5]; S. aureus Newman, MSSA): 0,125 µg/ml | MIC value ([5]; S. aureus SA564, MSSA): 0,125 µg/ml | MIC value ([5]; S. aureus USA300, CA-MRSA): 0,0625 µg/ml | Average MIC value ([6]; S. haemolyticus mecA, 6 strains): 3.83 µg/mL | MIC value ([6]; S.haemolyticus DALB_R1, mecA): 2 µg/mL (≈ 1.1 µM) | MIC value ([6]; S.haemolyticus DALB_R2, mecA): 8 µg/mL (≈ 4.4 µM) | MIC value ([6]; S.haemolyticus DALB_R3, mecA): 2 µg/mL (≈ 1.1 µM) | MIC value ([6]; S.haemolyticus DALB_R4, mecA): 2 µg/mL (≈ 1.1 µM) | MIC value ([6]; S.haemolyticus DALB_R5, mecA): 1 µg/mL (≈ 0.55 µM) | MIC value ([6]; S.haemolyticus ORI_R1, mecA): 8 µg/mL (≈ 4.4 µM) | Average MIC value ([7]; S. epidermidis mecA, 6 strains): 1.77 µg/mL | MIC value ([7]; S.epidermidis ORI_R1, mecA): 4 µg/mL (≈ 2.2 µM) | MIC value ([7]; S.epidermidis ORI_R2, mecA): 4 µg/mL (≈ 2.2 µM) | MIC value ([7]; S.epidermidis ORI_R3, mecA): 2 µg/mL (≈ 1.1 µM) | MIC value ([7]; S.epidermidis ORI_R4, mecA): 0,25 µg/ml | MIC value ([7]; S.epidermidis TEI_R1, mecA): 0,25 µg/ml | MIC value ([7]; S.epidermidis TEI_R2, mecA): 0,125 µg/ml | Average MIC value ([8]; E. faecium VAN^R,TEI^R/VanA, 8 strains): 48 µg/mL | Average MIC value ([8]; E. faecium VAN^S, TEI^S, 1 strain): 0.25 µg/mL | MIC value ([8]; E.faecium E335, VAN,TEI,LNZ/VanA): 64 µg/mL (≈ 35.2 µM) | MIC value ([8]; E.faecium E355, VAN,TEI,LNZ/VanA): 32 µg/mL (≈ 17.6 µM) | MIC value ([8]; E.faecium E832, VAN,TEI,LNZ/VanA): 64 µg/mL (≈ 35.2 µM) | MIC value ([8]; E.faecium E854, VAN,TEI,LNZ/VanA): 32 µg/mL (≈ 17.6 µM) | MIC value ([8]; E.faecium E859, VAN,TEI,LNZ/VanA): 32 µg/mL (≈ 17.6 µM) | MIC value ([8]; E.faecium E1114, VAN,TEI,LNZ/VanA): 64 µg/mL (≈ 35.2 µM) | MIC value ([8]; E.faecium E1131, VAN,TEI,LNZ/VanA): 64 µg/mL (≈ 35.2 µM) | MIC value ([8]; E.faecium E1132, VAN,TEI,LNZ/VanA): 32 µg/mL (≈ 17.6 µM) | MIC value ([8]; E.faecium TX0016): 0,25 µg/ml

CCOC(=O)[C@H]1O[C@@H]1C(=O)N[C@@H](CC(C)C)C(=O)NCCC(C)C [Compound E64d, reference compound]
EC50 [1]: > 20000 nM | EC50 [2]: 1300 ± 1200 nM
